# Assay results from ChEMBL document CHEMBL3227996, “New bronchodilators. Synthesis and bronchodilating activity of some 3-(alkoxymethyl)-alpha-(N-substituted aminomethyl)-4-hydroxybenzyl alcohols” (1979).
# Legend:
# Format in all cases: functional
# Cavia porcellus [1] = experiment: Inhibition of histamine-induced asthma-like syndrome in guinea pig assessed as time delay in appearance of coughing at 5 mg/kg, po treated 30 mins before histamine challenge (reference value: 6.13 mins)
# Cavia porcellus [2] = experiment: Inhibition of histamine-induced asthma-like syndrome in guinea pig assessed as time delay in appearance of anoxia at 5 mg/kg, po treated 30 mins before histamine challenge (reference value: 5.08 mins)
# Cavia porcellus [3] = experiment: Inhibition of histamine-induced asthma-like syndrome in guinea pig assessed as time delay in appearance of coughing at 1.25 mg/kg, po treated 30 mins before histamine challenge (reference value: 6.13 mins)
# Cavia porcellus [4] = experiment: Inhibition of histamine-induced asthma-like syndrome in guinea pig assessed as time delay in appearance of anoxia at 1.25 mg/kg, po treated 30 mins before histamine challenge (reference value: 5.08 mins)
# Cavia porcellus [5] = experiment: Inhibition of histamine-induced airway resistance in guinea pig administered intravenously 3 mins before histamine challenge; conditions: iv
compound,measurement,setting,value
COCc1cc(C(O)CNC(C)C)ccc1O.Cl (configuration not stated),Time,Cavia porcellus [1],15.25 min
same,Time,Cavia porcellus [2],10.38 min
CCOCc1cc(C(O)CNC(C)C)ccc1O.Cl (configuration not stated),Time,Cavia porcellus [1],14.03 min
same,Time,Cavia porcellus [2],9.23 min
COCCOCc1cc(C(O)CNC(C)C)ccc1O.Cl (configuration not stated),Time,Cavia porcellus [1],9.7 min
same,Time,Cavia porcellus [2],8.8 min
COCc1cc(C(O)CNC(C)(C)C)ccc1O.Cl (configuration not stated),Time,Cavia porcellus [3],20 min
same,Time,Cavia porcellus [4],17.17 min
CCOCc1cc(C(O)CNC(C)(C)C)ccc1O.Cl (configuration not stated),Time,Cavia porcellus [3],14.85 min
same,Time,Cavia porcellus [4],14.55 min
COCCOCc1cc(C(O)CNC(C)(C)C)ccc1O.Cl (configuration not stated),Time,Cavia porcellus [1],15.18 min
same,Time,Cavia porcellus [3],7.88 min
same,Time,Cavia porcellus [4],6.75 min
same,Time,Cavia porcellus [2],13.8 min
CCOCCOCc1cc(C(O)CNC(C)(C)C)ccc1O.Cl (configuration not stated),Time,Cavia porcellus [1],14.08 min
same,Time,Cavia porcellus [3],11.81 min
same,Time,Cavia porcellus [4],10.58 min
same,Time,Cavia porcellus [2],8.97 min
CC(C)(C)NCC(O)c1ccc(O)c(COCCO)c1.Cl (configuration not stated),Time,Cavia porcellus [1],5.97 min
same,Time,Cavia porcellus [2],4.98 min
COCc1cc(C(O)CNC(C)C)cc(COC)c1O.Cl (configuration not stated),Time,Cavia porcellus [3],11 min
same,Time,Cavia porcellus [4],10.71 min
COCc1cc(C(O)CNC(C)(C)C)cc(COC)c1O.Cl (configuration not stated),Time,Cavia porcellus [3],7.78 min
same,Time,Cavia porcellus [4],7.35 min
COCc1cc(C(O)CNC(C)Cc2ccccc2)ccc1O.Cl (configuration not stated),Time,Cavia porcellus [1],11.65 min
same,Time,Cavia porcellus [2],9.61 min
CCOCc1cc(C(O)CNC(C)Cc2ccccc2)ccc1O.Cl (configuration not stated),Time,Cavia porcellus [1],13.92 min
same,Time,Cavia porcellus [2],12.57 min
COCc1cc(C(O)CNC(C)(C)Cc2ccccc2)ccc1O.Cl (configuration not stated),Time,Cavia porcellus [1],11.83 min
same,Time,Cavia porcellus [2],11.35 min
CCOCc1cc(C(O)CNC(C)(C)Cc2ccccc2)ccc1O.Cl (configuration not stated),Time,Cavia porcellus [1],16.08 min
same,Time,Cavia porcellus [2],15.98 min
COCc1cc(C(O)CNC(C)Cc2ccc3c(c2)OCO3)ccc1O.O=C(O)C(=O)O (configuration not stated),Time,Cavia porcellus [3],12.05 min
same,Time,Cavia porcellus [4],10.43 min
COCc1cc(C(O)CNC(C)Cc2ccc(O)cc2)ccc1O.O=C(O)C(=O)O (configuration not stated),Time,Cavia porcellus [3],20 min
same,Time,Cavia porcellus [4],19.97 min
COCc1cc(C(O)CNC(C)Cc2ccc(OC)cc2)ccc1O.O=C(O)/C=C/C(=O)O (configuration not stated),Time,Cavia porcellus [3],20 min
same,Time,Cavia porcellus [4],19.1 min
same,ED50,Cavia porcellus [5],2.75 µg/kg
CC(C)(C)NCC(O)c1ccc(O)c(CO)c1 (configuration not stated) [ALBUTEROL],Time,Cavia porcellus [1],19.13 min
same,Time,Cavia porcellus [3],9.68 min
same,Time,Cavia porcellus [4],8.1 min
same,Time,Cavia porcellus [2],17.22 min
CC(C)NCC(O)c1ccc(O)c(O)c1 (configuration not stated) [ISOPROTERENOL],Time,Cavia porcellus [1],17.67 min
same,Time,Cavia porcellus [3],8.02 min
same,Time,Cavia porcellus [4],6.82 min
same,Time,Cavia porcellus [2],12.71 min
